Laboratory results from patent US20250228861A1, “Cancer Treatments Using MTA-Cooperative PRMT5 Inhibitors” (AMGEN INC., priority 2022, published 2025).
“Also recorded” adds a separate entry of the source. Like-named read-outs stand apart in the source and are kept apart here.

How the values were obtained:
HCT116 MTAP-WT cells [1] = assay: 6-day CellTiter-Glo viability in MTAP-WT cells; format: cell-based; details: Homo sapiens, HCT-116, 144 h, 6 days, read-out: proliferation, IC50
Experimental: (§1) FIG. 1. […] Viability was measured by CellTiter-Glo and cooperativity was determined as follows: Cooperativity=WT IC50/MTAP-null IC50.
(§2) Plated cells were at optimized cell density in 96-well black walled, clear bottom tissue culture plates in 90 μL of growth media. Cells were incubated at room temperature for 30 minutes prior to placing in incubator at 37° C. and 5% CO2 overnight. […] Secondary compound dilutions (1:100) in media were done in the 96-well V-Bottom plate by adding 3 μL of the primary dilution to 297 μL of culture media. Finally, 10 μL from the secondary compound dilutions were added to cells in triplicate (1:10 dilution; final DMSO concentration 0.1%). Once addition was complete, plates were incubated at 37° C. and 5% CO2. […] Percent of Control (POC) values were calculated as follows: POC=100*(Treatment/Vehicle). Mean POC values were then calculated for each treatment condition and used to fit dose response curves applying a four parameter logistic curve in GraphPad Prism 7.

[2] = test system: endogenous wild-type or MTAP-null cell lines; assay: 6-day viability in expanded panel of tumor cell lines; format: cell-based; details: endogenous MTAP-null vs wild-type cell lines; 6-day CellTiter-Glo
Experimental: FIG. 9. […] Top concentration of tested was 10 μM (1 uM for DLBCL lines) with a total of nine 1:3 serial dilution steps and DMSO-only control. […] (mean±SD, n=3).

MTAP-null cells = assay: In-vitro mechanism of action studies (DNA damage, cell cycle); format: cell-based; details: data not shown
[3] = test system: BXPC-3 endogenous MTAP-null xenografts; assay: BxPC-3 xenografts; format: in vivo; details: BxPC-3 xenografts in SCID mice; p.o. once a day
Excerpt: FIG. 10. […] Data represent group means±SEM, n=10. […] Data represent mean±SD, n=5 for each group.

[4] = test system: HAP1- and HCT116 MTAP-null cells; assay: 6-day CellTiter-Glo viability in MTAP-null cells; format: cell-based; details: 144 h, 6 days, read-out: proliferation, IC50
Experimental: as §1, §2

PSN1 cells [5] = assay: Combination with gemcitabine, CellTiter-Glo viability, Fa and CalcuSyn CI; details: 6 days
Experimental: (§4) Cell viability was measured by the CellTiter-Glo Luminescence assay. Raw luminescent values were converted to fraction affected (Fa) with the following equation:
(§5) Synergy analysis was performed using the CalcuSyn software to determine CI scores based on the drug concentrations used and corresponding Fa values.

HCT116 MTAP-WT cells [6] = assay: Global SDMA levels (in-cell imaging) in MTAP-WT cells; format: cell-based; details: Homo sapiens, HCT-116, 96 h, 4 days
Experimental: as §1
(§3) HCT116 WT and MTAP-null global SDMA levels were assessed by an in-cell imaging assay after 4 days treatment.

[7] = test system: HCT116 MTAP-null tumor xenografts; details: mouse, in vivo, po
Experimental: FIG. 2: ELISA analysis of HCT116 MTAP WT and HCT116 MTAP-null contralateral tumor cells. […] Percentage of inhibition reported relative to matched vehicle. Data represent mean±SD, n=3 for each group.
Female Athymic Nude mice were implanted with HCT116 MTAP-null or MTAP WT tumors. […] Data represents group means±SEM, n=10. […] STATS: P values were determined by Linear Mixed-Effects Model with a Dunnett's comparison to control.

PSN1 cells [8] = assay: Combination with carboplatin, CellTiter-Glo viability, Fa and CalcuSyn CI; details: Compound B 0.0384 μM fixed + Carboplatin 3 μM, 6 days
Experimental: as §4, §5

[9] = test system: HAP1- and HCT116 MTAP-null cells; assay: Global SDMA levels (ELISA / in-cell imaging) in MTAP-null cells; format: cell-based; details: HAP1 ELISA 3 days, HCT116 in-cell imaging 4 days
Experimental: as §1
HAP1 WT and MTAP-null global SDMA levels were assessed by an ELISA assay after 3 days treatment.
as §3

PSN1 cells [10] = details: 6 days
Experimental: as §4, §5

MIAPACA2T2 cells = details: 6 days
Experimental: as §4, §5

[11] = Compound B 0.022375 μM fixed + Gemcitabine 0.001461 μM
[12] = Compound B 0.022375 μM fixed + Gemcitabine 0.005612 μM
[13] = Compound G 0.0213 μM fixed + 5-FU 0.357628 μM
[14] = Compound G 0.0213 μM fixed + 5-FU 0.572205 μM
[15] = Compound G 0.0213 μM fixed + 5-FU 0.915527 μM
[16] = Compound G 0.0213 μM fixed + 5-FU 1.46484 μM
[17] = Compound G 0.0213 μM fixed + 5-FU 2.34375 μM
[18] = Compound G 0.0213 μM fixed + 5-FU 3.75 μM
[19] = Compound G 0.0213 μM fixed + 5-FU 6 μM
[20] = Compound G 0.83102 μM fixed + 5-FU 0.664052 μM
[21] = Compound G 0.83102 μM fixed + 5-FU 0.929672 μM
[22] = Compound G 0.83102 μM fixed + 5-FU 1.30154 μM
[23] = Compound G 0.83102 μM fixed + 5-FU 1.82216 μM
[24] = Compound G 0.83102 μM fixed + 5-FU 2.55102 μM
[25] = Compound G 0.83102 μM fixed + 5-FU 3.57143 μM
[26] = Compound G 0.83102 μM fixed + 5-FU 5 μM

Cc1cc2cc(C(=O)N(Cc3ccc(C(F)(F)F)cn3)[C@@H](C)c3ncccn3)ccc2nc1N [Compound B]
IC50 (HCT116 MTAP-WT cells [1]): 630 nM
proliferation / viability in expanded panel of tumor cell lines [2]: inhibited the proliferation of most MTAP-null cells, with minimal effects on MTAP-WT cells; also recorded: preferential activity in endogenous MTAP-null tumor cell lines; also recorded: preferentially inhibits cell viability in endogenous MTAP-null vs. wildtype
DNA damage (phosphorylation of H2AX) (MTAP-null cells): induced DNA damage, as illustrated by increased phosphorylation of H2AX
cell cycle (MTAP-null cells): an arrest in the G2/M phase of the cell cycle
anti-tumor activity [3]: significant anti-tumor activity
IC50 [4]: 27 nM
Combination Fa (PSN1 cells [5]; [11]): 0.594
Computed CI value (PSN1 cells [5]; [11]): 2.081
Computed CI value (PSN1 cells [5]; Compound B 0.022375 μM fixed + Gemcitabine 0.002045 μM): 1.177
Combination Fa (PSN1 cells [5]; [12]): 0.985
Computed CI value (PSN1 cells [5]; [12]): 0.8
Combination Fa (PSN1 cells [5]; Compound B 0.022375 μM fixed + Gemcitabine 0.007857 μM): 0.986
Combination Fa (PSN1 cells [5]; Compound B 0.022375 μM fixed + Gemcitabine 0.011 μM): 0.989
IC50 (HCT116 MTAP-WT cells [6]): 50 nM
SDMA and tumor growth in xenografts [7]: selectively inhibits SDMA and tumor growth
Computed CI value (PSN1 cells [8]): 0.547
IC50 [9]: 0.2 nM

Nc1nc2cnc(C(=O)N3CCOC[C@@H]3c3ccc(C(F)(F)F)cc3)cc2c2c1COC2 [Compound G]
Combination Fa (PSN1 cells [10]; [13]): 0.3
Computed CI value (PSN1 cells [10]; [13]): 1.422
Combination Fa (PSN1 cells [10]; [14]): 0.416
Computed CI value (PSN1 cells [10]; [14]): 1.404
Combination Fa (PSN1 cells [10]; [15]): 0.669
Computed CI value (PSN1 cells [10]; [15]): 1.055
Combination Fa (PSN1 cells [10]; [16]): 0.74
Computed CI value (PSN1 cells [10]; [16]): 1.282
Combination Fa (PSN1 cells [10]; [17]): 0.789
Computed CI value (PSN1 cells [10]; [17]): 1.668
Combination Fa (PSN1 cells [10]; [18]): 0.836
Computed CI value (PSN1 cells [10]; [18]): 2.158
Combination Fa (PSN1 cells [10]; [19]): 0.869
Computed CI value (PSN1 cells [10]; [19]): 2.903
Combination Fa (MIAPACA2T2 cells; [20]): 0.7114
Computed CI value (MIAPACA2T2 cells; [20]): 0.445
Combination Fa (MIAPACA2T2 cells; [21]): 0.7511
Computed CI value (MIAPACA2T2 cells; [21]): 0.477
Combination Fa (MIAPACA2T2 cells; [22]): 0.8099
Computed CI value (MIAPACA2T2 cells; [22]): 0.482
Combination Fa (MIAPACA2T2 cells; [23]): 0.85
Computed CI value (MIAPACA2T2 cells; [23]): 0.529
Combination Fa (MIAPACA2T2 cells; [24]): 0.8941
Computed CI value (MIAPACA2T2 cells; [24]): 0.555
Combination Fa (MIAPACA2T2 cells; [25]): 0.9193
Computed CI value (MIAPACA2T2 cells; [25]): 0.632
Combination Fa (MIAPACA2T2 cells; [26]): 0.9246
Computed CI value (MIAPACA2T2 cells; [26]): 0.834
